For experiment [1], the target named is Tyrosine-protein kinase SYK (Homo sapiens, UniProt P43405). As to the kind of experiment: Selectivity interaction (Ambit KINOMEscan and KiNATiv profiling in Jurkat cells) EUB0000090b SYK. As to conditions: at 1 µM. Type of experiment: cell-based.
The target in experiment [2] is Ribosomal protein S6 kinase alpha-3 (Homo sapiens, UniProt P51812). As to the kind of experiment: Selectivity interaction (KinomeScan (DiscoverX)) EUB0001079a RPS6KA3. To be noted: at 1 µM.
Chain of Ribosomal protein S6 kinase alpha-3 (P51812 whole entry, canonical isoform): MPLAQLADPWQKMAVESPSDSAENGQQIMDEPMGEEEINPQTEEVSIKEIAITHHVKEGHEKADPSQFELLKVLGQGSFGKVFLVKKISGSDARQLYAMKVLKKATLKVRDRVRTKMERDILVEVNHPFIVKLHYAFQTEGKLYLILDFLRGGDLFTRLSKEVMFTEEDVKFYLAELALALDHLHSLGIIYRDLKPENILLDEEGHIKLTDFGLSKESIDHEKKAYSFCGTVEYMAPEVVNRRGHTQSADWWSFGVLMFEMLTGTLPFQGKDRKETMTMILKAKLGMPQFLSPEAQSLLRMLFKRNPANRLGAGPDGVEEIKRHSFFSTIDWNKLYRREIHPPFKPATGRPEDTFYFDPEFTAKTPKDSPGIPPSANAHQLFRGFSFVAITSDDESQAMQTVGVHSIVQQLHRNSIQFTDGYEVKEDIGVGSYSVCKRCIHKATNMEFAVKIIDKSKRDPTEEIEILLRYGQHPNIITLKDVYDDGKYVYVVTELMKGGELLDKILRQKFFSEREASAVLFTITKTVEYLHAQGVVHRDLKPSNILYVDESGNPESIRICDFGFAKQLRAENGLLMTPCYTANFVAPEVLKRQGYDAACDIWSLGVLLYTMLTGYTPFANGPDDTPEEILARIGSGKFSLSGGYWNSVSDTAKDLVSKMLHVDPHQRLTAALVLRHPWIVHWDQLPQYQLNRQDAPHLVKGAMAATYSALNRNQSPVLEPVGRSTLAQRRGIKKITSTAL
The target in experiment [3] is T1, Phosphatidylinositol 4,5-bisphosphate 3-kinase catalytic subunit delta isoform (Homo sapiens) (UniProt O00329).
T1 sequence (whole entry): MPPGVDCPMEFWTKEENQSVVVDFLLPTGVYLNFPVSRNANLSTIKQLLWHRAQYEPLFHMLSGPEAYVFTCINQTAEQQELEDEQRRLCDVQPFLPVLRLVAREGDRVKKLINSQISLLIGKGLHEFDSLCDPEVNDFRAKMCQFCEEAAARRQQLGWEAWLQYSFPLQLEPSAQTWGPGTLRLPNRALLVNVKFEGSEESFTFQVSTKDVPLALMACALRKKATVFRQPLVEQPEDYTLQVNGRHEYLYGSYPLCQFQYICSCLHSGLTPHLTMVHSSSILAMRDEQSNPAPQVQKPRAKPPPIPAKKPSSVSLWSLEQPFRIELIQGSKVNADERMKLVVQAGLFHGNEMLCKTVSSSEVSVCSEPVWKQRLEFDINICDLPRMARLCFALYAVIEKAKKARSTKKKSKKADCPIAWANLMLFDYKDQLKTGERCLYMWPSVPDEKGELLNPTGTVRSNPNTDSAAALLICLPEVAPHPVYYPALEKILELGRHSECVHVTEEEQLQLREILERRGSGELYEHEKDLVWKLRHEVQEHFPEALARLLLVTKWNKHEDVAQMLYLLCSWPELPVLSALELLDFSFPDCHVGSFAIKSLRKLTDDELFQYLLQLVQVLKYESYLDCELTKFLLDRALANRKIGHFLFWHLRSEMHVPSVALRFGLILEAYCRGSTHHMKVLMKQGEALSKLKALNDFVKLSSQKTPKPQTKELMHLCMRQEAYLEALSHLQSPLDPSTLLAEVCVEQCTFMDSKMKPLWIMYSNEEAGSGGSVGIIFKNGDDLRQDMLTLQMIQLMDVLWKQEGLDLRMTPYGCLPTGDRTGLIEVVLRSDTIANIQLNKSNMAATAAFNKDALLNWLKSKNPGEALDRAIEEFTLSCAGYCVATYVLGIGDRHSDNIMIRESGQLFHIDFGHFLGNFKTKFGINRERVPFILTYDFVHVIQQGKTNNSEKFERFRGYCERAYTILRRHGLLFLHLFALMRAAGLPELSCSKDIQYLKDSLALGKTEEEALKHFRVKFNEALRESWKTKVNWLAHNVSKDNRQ
As to the kind of experiment: Selectivity interaction (KinomeScan (DiscoverX)) EUB0000877a PIK3CD. To be noted: at 10 µM.

In experiment [4] the target is T2, Tyrosine-protein kinase receptor TYRO3 (Homo sapiens) (UniProt Q06418).
T2 sequence (whole entry): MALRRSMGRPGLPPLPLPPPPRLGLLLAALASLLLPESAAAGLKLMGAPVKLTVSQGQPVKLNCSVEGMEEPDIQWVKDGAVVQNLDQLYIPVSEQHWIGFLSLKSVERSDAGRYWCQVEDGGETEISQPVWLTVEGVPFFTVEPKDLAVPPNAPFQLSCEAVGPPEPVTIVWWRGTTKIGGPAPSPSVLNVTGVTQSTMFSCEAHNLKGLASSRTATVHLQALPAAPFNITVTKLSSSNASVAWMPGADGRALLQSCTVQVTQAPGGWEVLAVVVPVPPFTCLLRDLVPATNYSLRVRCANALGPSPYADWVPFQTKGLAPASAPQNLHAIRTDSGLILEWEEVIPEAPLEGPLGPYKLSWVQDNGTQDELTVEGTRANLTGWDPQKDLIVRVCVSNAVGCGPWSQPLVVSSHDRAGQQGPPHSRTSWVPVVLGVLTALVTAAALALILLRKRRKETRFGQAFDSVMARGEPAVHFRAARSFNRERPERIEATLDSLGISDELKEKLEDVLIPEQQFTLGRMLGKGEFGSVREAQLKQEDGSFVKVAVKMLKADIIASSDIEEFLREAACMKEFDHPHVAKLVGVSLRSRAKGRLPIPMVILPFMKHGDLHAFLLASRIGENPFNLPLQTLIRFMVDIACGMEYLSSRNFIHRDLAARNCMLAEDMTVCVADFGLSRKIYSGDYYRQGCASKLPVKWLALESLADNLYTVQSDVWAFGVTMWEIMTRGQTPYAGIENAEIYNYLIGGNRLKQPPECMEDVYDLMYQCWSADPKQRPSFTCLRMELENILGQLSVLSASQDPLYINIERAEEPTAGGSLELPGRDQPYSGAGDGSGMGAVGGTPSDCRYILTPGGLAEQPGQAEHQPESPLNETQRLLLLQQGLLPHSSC
Put plainly: Selectivity interaction (KinomeScan (DiscoverX)) EUB0001049a TYRO3. To be noted: at 1 µM.

The target of experiment [5] is T3, Mitogen-activated protein kinase kinase kinase 7 (Homo sapiens) (UniProt O43318).
T3 sequence (whole entry): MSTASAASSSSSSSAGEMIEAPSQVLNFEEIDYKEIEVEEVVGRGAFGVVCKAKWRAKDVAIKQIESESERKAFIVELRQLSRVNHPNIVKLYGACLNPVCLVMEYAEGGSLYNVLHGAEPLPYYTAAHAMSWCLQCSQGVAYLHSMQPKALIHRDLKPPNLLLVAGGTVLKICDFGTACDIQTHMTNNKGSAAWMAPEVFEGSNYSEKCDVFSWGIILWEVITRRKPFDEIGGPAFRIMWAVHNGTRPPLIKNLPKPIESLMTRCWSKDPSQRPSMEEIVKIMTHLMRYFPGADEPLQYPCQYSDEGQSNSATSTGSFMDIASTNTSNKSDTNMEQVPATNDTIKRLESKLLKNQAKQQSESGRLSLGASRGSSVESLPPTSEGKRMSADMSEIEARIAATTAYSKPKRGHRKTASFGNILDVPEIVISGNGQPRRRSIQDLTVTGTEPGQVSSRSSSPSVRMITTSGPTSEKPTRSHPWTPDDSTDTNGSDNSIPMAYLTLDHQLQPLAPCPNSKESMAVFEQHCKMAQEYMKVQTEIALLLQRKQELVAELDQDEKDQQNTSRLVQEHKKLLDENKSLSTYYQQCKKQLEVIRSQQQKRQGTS
As to the kind of experiment: Selectivity interaction (KinomeScan (DiscoverX)) EUB0000092b MAP3K7. To be noted: at 10 µM.

Experiment [6] deals with Death-associated protein kinase 2 (Homo sapiens) (UniProt Q9UIK4). As to the kind of experiment: Selectivity interaction (KinomeScan (DiscoverX)) EUB0000045b DAPK2.
Chain of Death-associated protein kinase 2 (Homo sapiens) (Q9UIK4 whole entry, looked up): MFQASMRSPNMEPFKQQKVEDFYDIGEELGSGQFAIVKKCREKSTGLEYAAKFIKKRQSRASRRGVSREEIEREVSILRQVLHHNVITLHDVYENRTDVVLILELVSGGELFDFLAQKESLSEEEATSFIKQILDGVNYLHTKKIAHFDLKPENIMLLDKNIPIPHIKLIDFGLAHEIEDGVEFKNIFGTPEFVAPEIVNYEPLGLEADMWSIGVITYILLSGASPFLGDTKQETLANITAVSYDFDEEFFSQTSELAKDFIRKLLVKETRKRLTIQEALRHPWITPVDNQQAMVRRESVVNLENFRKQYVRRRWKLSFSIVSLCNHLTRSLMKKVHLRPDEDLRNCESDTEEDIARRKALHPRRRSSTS
Experiment [7] deals with Mitogen-activated protein kinase kinase kinase kinase 4 (Homo sapiens, UniProt O95819). Put plainly: Selectivity interaction (KinomeScan (DiscoverX)) EUB0000595a MAP4K4. As to conditions: at 10 µM.
Chain of Mitogen-activated protein kinase kinase kinase kinase 4 (O95819 2-1239 limits assumed): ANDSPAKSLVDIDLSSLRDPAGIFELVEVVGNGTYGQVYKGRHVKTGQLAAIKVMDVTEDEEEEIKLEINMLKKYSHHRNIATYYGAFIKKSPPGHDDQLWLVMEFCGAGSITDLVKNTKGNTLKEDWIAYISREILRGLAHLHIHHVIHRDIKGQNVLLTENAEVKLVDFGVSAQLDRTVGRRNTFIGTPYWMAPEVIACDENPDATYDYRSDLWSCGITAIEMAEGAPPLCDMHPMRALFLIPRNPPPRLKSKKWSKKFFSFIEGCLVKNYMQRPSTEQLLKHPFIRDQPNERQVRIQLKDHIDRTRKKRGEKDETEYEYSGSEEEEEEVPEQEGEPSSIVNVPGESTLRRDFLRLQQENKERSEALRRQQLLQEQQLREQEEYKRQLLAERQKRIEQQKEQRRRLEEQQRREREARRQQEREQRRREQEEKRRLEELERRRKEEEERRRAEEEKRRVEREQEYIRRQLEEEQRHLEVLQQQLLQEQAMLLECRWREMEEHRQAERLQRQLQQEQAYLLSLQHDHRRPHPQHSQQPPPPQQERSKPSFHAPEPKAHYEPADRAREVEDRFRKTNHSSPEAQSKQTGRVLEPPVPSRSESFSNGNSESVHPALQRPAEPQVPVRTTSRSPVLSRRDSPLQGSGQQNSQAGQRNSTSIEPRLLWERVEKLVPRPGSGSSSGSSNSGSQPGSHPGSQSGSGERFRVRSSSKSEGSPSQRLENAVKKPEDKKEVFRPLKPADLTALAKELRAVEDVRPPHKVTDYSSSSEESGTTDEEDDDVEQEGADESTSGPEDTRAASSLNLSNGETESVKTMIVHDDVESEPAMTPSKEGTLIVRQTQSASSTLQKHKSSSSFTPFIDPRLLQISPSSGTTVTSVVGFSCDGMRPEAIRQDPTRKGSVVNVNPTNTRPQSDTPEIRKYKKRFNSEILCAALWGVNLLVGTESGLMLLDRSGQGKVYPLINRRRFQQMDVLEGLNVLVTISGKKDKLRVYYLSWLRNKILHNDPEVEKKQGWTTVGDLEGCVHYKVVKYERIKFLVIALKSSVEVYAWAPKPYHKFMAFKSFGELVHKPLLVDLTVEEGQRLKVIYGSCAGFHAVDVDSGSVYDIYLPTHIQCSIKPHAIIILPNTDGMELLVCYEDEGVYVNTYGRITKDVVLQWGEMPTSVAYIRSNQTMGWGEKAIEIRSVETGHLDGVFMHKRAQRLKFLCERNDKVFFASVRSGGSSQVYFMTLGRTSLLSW

`CN(C)C/C=C/C(=O)Nc1ccc(C(=O)N2CCCC(Nc3ncc(Cl)c(-c4c[nH]c5ccccc45)n3)C2)cc1` (stereo not drawn) showed a % of control in experiment [1] of 86%.

In experiment [2], `Nc1cnc(N2CCc3cc(S(=O)(=O)Nc4c(F)cc(Cl)cc4F)cc(N4CCCC4=O)c32)nc1` [TP-020n] showed a % of control of 84%.

For the compound `CCC(=O)N1CC[C@H](Nc2ncnc3c2CN(c2cnc(OC)c(C(F)(F)F)c2)CC3)C1` [LENIOLISIB], the % of inhibition in experiment [3] turned out to be 100%.

The compound `COc1cc(Nc2nc(C)cc(-c3cnn4nc(OC)ccc34)n2)cc(C(F)(F)F)c1` had a % of control in experiment [4] of 76%.

With `CCC(=O)N1CCN(c2ccc(-n3c(=O)ccc4cnc5ccc(-c6cnc7ccccc7c6)cc5c43)cc2C(F)(F)F)CC1`, the % of control in experiment [5] stood at 47%.

Take `C=CC(=O)Nc1cc(-n2c(=O)ccc3cnc4ccc(-c5ccc(NS(C)(=O)=O)cc5)cc4c32)ccc1C`: the % of control in experiment [6] (at 1 µM) turned out to be 100%; in experiment [6] (at 10 µM), 94%.

`COCC(=O)NC/C=C/c1ccc2ncnc(Nc3ccc(Oc4ccc(C)nc4)c(C)c3)c2c1` [CP-724714]: the % of control in experiment [7] was 97%.
